Tested on: sturgeon suspension cells
Experiment: Proliferation of sturgeon suspension cells treated with epigenetic modifiers (cell counts, Neubauer chamber)
Conditions: exposed once per week

| Compound | proliferation compared to the standard culture | expansion factor (within 4 weeks, 1 μM, 10 μM, 50 μM, 100 μM and 500 μM) | expansion factor (within 6 weeks, 30 μM, 100 μM, 300 μM, 1 mM and 3 mM) |
| --- | --- | --- | --- |
| CCCC(=O)O [butyric acid] | increase in proliferation | 16 | – |
| CCCC(CCC)C(=O)O [valproic acid] | increase in proliferation | – | 8 |
